For this test, the system named is HT29 cells. Put plainly: Inhibition of cell necrosis (CCK8 method), induced programmed necrosis of HT29 cells. It is filed as cell-based. As to conditions: Homo sapiens, HT-29; rescue from necrosis induced by TNF-α 20 ng/mL, AT-406 1 μM, Z-VAD-FMK 20 μM; 16-20 hours; CCK-8, OD 450 nm. In a few lines:
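HT29 cells in McCOY's 5A with 10% FBS were pre-treated for 30 min with compound (9 fourfold steps, 25000 to 0.38 nM final, 0.25% DMSO). Necrosis was then induced with TNF-α 20 ng/mL, AT-406 1 μM and Z-VAD-FMK 20 μM for 16-20 h. Viability was read by CCK-8 OD450, normalized between uninduced and induced wells, and IC50 was curve-fitted.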
On the technique in general: Tetrazolium assays rely on reduction of a dye to a coloured formazan, in cell work by metabolically active cells.
One may read the IC50 as the midpoint of a concentration-inhibition curve. High values mean weaker potency in that assay, low ones greater potency in that assay. In turn, `CCC(O)(CC)CCCOc1ccc(C(F)(F)F)c(-c2ccnc(NC(=O)c3nnc(CC4CCCCC4)[nH]3)c2)c1` [Example 263, 5-(cyclohexylmethyl)-N-(4-(5-((4-ethyl-4-hydroxyhexyl)oxy)-2-(trifluoromethyl)phenyl)pyridin-2-yl)-4H-1,2,4-triazole-3-carboxamide] registered an IC50 not above 0.1 µM.
Under `CC(C)(O)COc1ccc(Cl)c(-c2ccnc(NC(=O)c3nnc(CC4CCCCC4)[nH]3)c2)c1` [Example 366, N-(4-(2-chloro-5-(2-hydroxyl-2-methylpropoxy)phenyl)pyridin-2-yl)-5-(cyclohexylmethyl)-4H-1,2,4-triazole-3-carboxamide] stands not above 0.1 µM; under `Cc1ccc(OCCN2CCCCC2)cc1-c1ccnc(NC(=O)c2nnc(Cc3cc(F)ccc3F)[nH]2)c1` [Example 231, 5-(2,5-difluorobenzyl)-N-(4-(2-methyl-5-(2-(piperidin-1-yl)ethoxy)phenyl)pyridin-2-yl)-4H-1,2,4-triazole-3-carboxamide], 0.1 to 1 µM.
The compound `O=C(Nc1cc(-c2cc(OCCC3CCOCC3)ccc2F)c(Cl)cn1)c1nnc(Cc2ccccc2F)[nH]1` [Example 333, N-(5-chloro-4-(2-fluoro-5-(2-(tetrahydro-2H-pyran-4-yl)ethoxy)phenyl)pyridin-2-yl)-5-(2-fluorobenzyl)-4H-1,2,4-triazole-3-carboxamide] gave an IC50 of 0.1 to 1 µM.
Consider `CCOc1ncc(C)cc1-c1ccnc(NC(=O)c2nnc(Cc3ccccc3)[nH]2)c1` [Example 51, 5-benzyl-N-(2-ethoxy-5-methyl-[3,4′-bipyridin]-2′-yl)-4H-1,2,4-triazole-3-carboxamide], for which the IC50 lay within 1 to 10 µM.
Regarding `COc1ccc(C(F)(F)F)cc1-c1ccnc(NC(=O)c2nnc(Cc3ccccc3)[nH]2)c1` [Example 19, 5-benzyl-N-(4-(2-methoxy-5-(trifluoromethyl)phenyl)pyridin-2-yl)-4H-1,2,4-triazole-3-carboxamide], the IC50 fell in the range of 1 to 10 µM.
The result for `Cc1cnc(NC(=O)c2nnc(Cc3ccccc3F)[nH]2)cc1-c1cc(OCCCC(C)(C)O)ccc1F` [Example 322, N-(4-(2-fluoro-5-((4-hydroxy-4-methylpentyl)oxy)phenyl)-5-methylpyridin-2-yl)-5-(2-fluorobenzyl)-4H-1,2,4-triazole-3-carboxamide] reads 0.1 to 1 µM.
`Cc1c(OCCCO)cccc1-c1ccnc(NC(=O)c2nnc(Cc3ccccc3)[nH]2)c1` [Example 97, 5-benzyl-N-(4-(3-(3-hydroxylpropoxy)-2-methylphenyl)pyridin-2-yl)-4H-1,2,4-triazole-3-carboxamide] showed an IC50 of 0.1 to 1 µM.
The result for `CCC(O)(CC)CCCOc1ccc(Cl)c(-c2ccnc(NC(=O)c3nnc(Cc4ccccc4F)[nH]3)c2)c1` [Example 360, N-(4-(2-chloro-5-((4-ethyl-4-hydroxyhexyl)oxy)phenyl)pyridin-2-yl)-5-(2-fluorobenzyl)-4H-1,2,4-triazole-3-carboxamide] reads not above 0.1 µM; that for `COc1ccc(Cc2nnc(C(=O)Nc3cc(-c4cc(OCCCC(C)(C)O)ccc4C)ccn3)[nH]2)cc1` [Example 190, 5-(4-methoxybenzyl)-N-(4-(5-((4-hydroxy-4-methylpentyl)oxy)-2-methylphenyl)pyridin-2-yl)-4H-1,2,4-triazole-3-carboxamide], 0.1 to 1 µM; that for `CC(C)(C)OCCOc1ccc(C=O)c(-c2ccnc(NC(=O)c3nnc(Cc4ccccc4)[nH]3)c2)c1` [Example 195, 5-benzyl-N-(4-(5-(2-(tert-butoxy)ethoxy)-2-formylphenyl)pyridin-2-yl)-4H-1,2,4-triazole-3-carboxamide], not above 0.1 µM.
`Cc1cnc(NC(=O)c2nnc(Cc3ccccc3F)[nH]2)cc1-c1cc(OCCC2CCOCC2)ccc1F` [Example 335, N-(4-(2-fluoro-5-(2-(tetrahydro-2H-pyran-4-yl)ethoxy)phenyl)-5-methylpyridin-2-yl)-5-(2-fluorobenzyl)-4H-1,2,4-triazole-3-carboxamide] had an IC50 of 1 to 10 µM.
Under `Cc1ccc(OCCOC(C)(C)C)cc1-c1ccnc(NC(=O)c2nnc(CC3CCCCC3)[nH]2)c1` [Example 77, N-(4-(5-(2-(tert-butoxy)ethoxy)-2-methylphenyl)pyridin-2-yl)-5-(cyclohexylmethyl)-4H-1,2,4-triazole-3-carboxamide] stands not above 0.1 µM; under `Cc1ccc(OCCCCCO)cc1-c1ccnc(NC(=O)c2nnc(CC3CCCC3)[nH]2)c1` [Example 224, 5-(cyclopentylmethyl)-N-(4-(5-((5-hydroxypentyl)oxy)-2-methylphenyl)pyridin-2-yl)-4H-1,2,4-triazole-3-carboxamide], not above 0.1 µM; under `CC(C)(O)CCCCOc1ccc(Cl)c(-c2ccnc(NC(=O)c3nnc(CC4CCCC4)[nH]3)c2)c1` [Example 369, N-(4-(2-chloro-5-((5-hydroxyl-5-methylhexyl)oxy)phenyl)pyridin-2-yl)-5-(cyclopentylmethyl)-4H-1,2,4-triazole-3-carboxamide], not above 0.1 µM.
The result for `COCCCOc1ccc(Cl)c(-c2ccnc(NC(=O)c3nnc(Cc4ccccc4)[nH]3)c2)c1` [Example 395, 5-benzyl-N-(4-(2-chloro-5-(3-methoxypropoxy)phenyl)pyridin-2-yl)-4H-1,2,4-triazole-3-carboxamide] reads not above 0.1 µM; that for `COc1ccc(C)c(-c2ccnc(NC(=O)c3nnc(CC4CCCCC4)[nH]3)c2)c1` [Example 103, 5-(cyclohexylmethyl)-N-(4-(5-methoxy-2-methylphenyl)pyridin-2-yl)-4H-1,2,4-triazole-3-carboxamide], 0.1 to 1 µM.
Under `Cc1ccc(OCC2CCCO2)cc1-c1ccnc(NC(=O)c2nnc(Cc3ccccc3)[nH]2)c1` (centres unmarked) [Example 121, 5-benzyl-N-(4-(2-methyl-5-((tetrahydrofuran-2-yl)methoxy)phenyl)pyridin-2-yl)-4H-1,2,4-triazole-3-carboxamide] stands not above 0.1 µM; under `COCCCN(C)c1ccc(C)c(-c2ccnc(NC(=O)c3nnc(Cc4ccccc4)[nH]3)c2)c1` [Example 58, 5-benzyl-N-(4-(5-((3-methoxypropyl)(methyl)amino)-2-methylphenyl)pyridin-2-yl)-4H-1,2,4-triazole-3-carboxamide], 0.1 to 1 µM; under `Cc1ccc(OCCCC(C)(C)O)cc1-c1ccnc(NC(=O)c2nnc(Cc3cccnc3)[nH]2)c1` [Example 220, N-(4-(5-((4-hydroxy-4-methylpentyl)oxy)-2-methylphenyl)pyridin-2-yl)-5-(pyridin-3-ylmethyl)-4H-1,2,4-triazole-3-carboxamide], not above 0.1 µM.
As for `Cc1ccc(OCCCC2(O)CCCC2)cc1-c1ccnc(NC(=O)c2nnc(Cc3ccccc3)[nH]2)c1` [Example 163, 5-benzyl-N-(4-(5-(3-(1-hydroxycyclopentyl)propoxy)-2-methylphenyl)pyridin-2-yl)-4H-1,2,4-triazole-3-carboxamide], the IC50 is not above 0.1 µM.
Under `COCCOc1nc(-c2ccnc(NC(=O)c3nnc(Cc4ccccc4)[nH]3)c2)ccc1C` [Example 54, 5-benzyl-N-(6-(2-methoxyethoxy)-5-methyl-[2,4′-bipyridin]-2′-yl)-4H-1,2,4-triazole-3-carboxamide] stands more than 10 µM.
Under `O=C(Nc1cc(-c2cc(OCC3CCOCC3)ccc2C(F)(F)F)ccn1)c1nnc(Cc2ccccc2)[nH]1` [Example 299, 5-benzyl-N-(4-(5-((tetrahydro-2H-pyran-4-yl)methoxy)-2-(trifluoromethyl)phenyl)pyridin-2-yl)-4H-1,2,4-triazole-3-carboxamide] stands not above 0.1 µM.

(Values after patent US12435060B2, “Acylamino bridged heterocyclic compound, and composition and application thereof” (BEIJING SCITECH-MQ PHARMACEUTICALS LIMITED, priority 2019, dated 2025).)
